# Assay results taken from the NIST ThermoML archive (doi:10.1021/je700021f).
# Numbers after ± are expanded uncertainties.
# Assay: xn = mol fraction of the nth substance listed
# Conditions: 101 kPa, Liquid, Pulse-echo method
compound,measurement,setting,value
CCCCCCCCCCl [1-chlorononane] + CCCCCCCCC,speed of sound,"358.15 K, x2 = 0.7",994.9 ± 2.9 m/s
same,speed of sound,"358.15 K, x2 = 0.8",982.6 ± 2.9 m/s
same,speed of sound,"358.15 K, x2 = 0.85",981 ± 2.9 m/s
same,speed of sound,"358.15 K, x2 = 0.9",976.3 ± 2.9 m/s
same,speed of sound,"363.15 K, x2 = 0",1048.5 ± 3 m/s
same,speed of sound,"363.15 K, x2 = 0.1",1029.5 ± 2.9 m/s
same,speed of sound,"363.15 K, x2 = 0.3",1009.6 ± 2.9 m/s
same,speed of sound,"363.15 K, x2 = 0.5",994.7 ± 2.9 m/s
same,speed of sound,"363.15 K, x2 = 0.7",976.8 ± 2.9 m/s
same,speed of sound,"363.15 K, x2 = 0.8",964.2 ± 2.8 m/s
same,speed of sound,"363.15 K, x2 = 0.85",962.4 ± 2.8 m/s
same,speed of sound,"363.15 K, x2 = 0.9",957.8 ± 2.8 m/s
same,speed of sound,"368.15 K, x2 = 0",1032.2 ± 2.9 m/s
same,speed of sound,"368.15 K, x2 = 0.1",1012.3 ± 2.9 m/s
same,speed of sound,"368.15 K, x2 = 0.3",992.2 ± 2.9 m/s
same,speed of sound,"368.15 K, x2 = 0.5",976.9 ± 2.9 m/s
same,speed of sound,"368.15 K, x2 = 0.7",958.9 ± 2.8 m/s
same,speed of sound,"368.15 K, x2 = 0.8",945.8 ± 2.8 m/s
same,speed of sound,"368.15 K, x2 = 0.85",943.9 ± 2.8 m/s
same,speed of sound,"368.15 K, x2 = 0.9",939.2 ± 2.8 m/s
same,speed of sound,"373.15 K, x2 = 0",1015.9 ± 2.9 m/s
same,speed of sound,"373.15 K, x2 = 0.1",995.2 ± 2.9 m/s
same,speed of sound,"373.15 K, x2 = 0.3",974.9 ± 2.9 m/s
same,speed of sound,"373.15 K, x2 = 0.5",959.2 ± 2.8 m/s
same,speed of sound,"373.15 K, x2 = 0.7",941.1 ± 2.8 m/s
same,speed of sound,"373.15 K, x2 = 0.8",927.7 ± 2.8 m/s
same,speed of sound,"373.15 K, x2 = 0.85",925.5 ± 2.8 m/s
same,speed of sound,"373.15 K, x2 = 0.9",920.7 ± 2.8 m/s
same,speed of sound,"378.15 K, x2 = 0",999.1 ± 2.9 m/s
same,speed of sound,"378.15 K, x2 = 0.1",978.3 ± 2.9 m/s
same,speed of sound,"378.15 K, x2 = 0.3",957.8 ± 2.8 m/s
same,speed of sound,"378.15 K, x2 = 0.5",941.6 ± 2.8 m/s
same,speed of sound,"378.15 K, x2 = 0.7",923.5 ± 2.8 m/s
same,speed of sound,"378.15 K, x2 = 0.8",909.6 ± 2.8 m/s
same,speed of sound,"378.15 K, x2 = 0.85",907.2 ± 2.8 m/s
same,speed of sound,"378.15 K, x2 = 0.9",902.3 ± 2.8 m/s
same,speed of sound,"383.15 K, x2 = 0",982.7 ± 2.9 m/s
same,speed of sound,"383.15 K, x2 = 0.1",961.5 ± 2.8 m/s
same,speed of sound,"383.15 K, x2 = 0.3",940.8 ± 2.8 m/s
same,speed of sound,"383.15 K, x2 = 0.5",924.1 ± 2.8 m/s
same,speed of sound,"383.15 K, x2 = 0.7",906 ± 2.8 m/s
same,speed of sound,"383.15 K, x2 = 0.8",891.6 ± 2.7 m/s
same,speed of sound,"383.15 K, x2 = 0.85",889 ± 2.7 m/s
same,speed of sound,"383.15 K, x2 = 0.9",883.9 ± 2.7 m/s
same,speed of sound,"388.15 K, x2 = 0",966.4 ± 2.8 m/s
same,speed of sound,"388.15 K, x2 = 0.1",944.8 ± 2.8 m/s
same,speed of sound,"388.15 K, x2 = 0.3",924 ± 2.8 m/s
same,speed of sound,"388.15 K, x2 = 0.5",906.7 ± 2.8 m/s
same,speed of sound,"388.15 K, x2 = 0.7",888.7 ± 2.7 m/s
same,speed of sound,"388.15 K, x2 = 0.8",873.8 ± 2.7 m/s
same,speed of sound,"388.15 K, x2 = 0.85",870.9 ± 2.7 m/s
same,speed of sound,"388.15 K, x2 = 0.9",865.6 ± 2.7 m/s
same,speed of sound,"393.15 K, x2 = 0",950.3 ± 2.8 m/s
same,speed of sound,"393.15 K, x2 = 0.1",928.3 ± 2.8 m/s
same,speed of sound,"393.15 K, x2 = 0.3",907.3 ± 2.8 m/s
same,speed of sound,"393.15 K, x2 = 0.5",889.4 ± 2.7 m/s
same,speed of sound,"393.15 K, x2 = 0.7",871.5 ± 2.7 m/s
same,speed of sound,"393.15 K, x2 = 0.8",856.1 ± 2.7 m/s
same,speed of sound,"393.15 K, x2 = 0.85",852.9 ± 2.7 m/s
same,speed of sound,"393.15 K, x2 = 0.9",847.3 ± 2.7 m/s
same,speed of sound,"398.15 K, x2 = 0",934.3 ± 2.8 m/s
same,speed of sound,"398.15 K, x2 = 0.1",911.8 ± 2.8 m/s
same,speed of sound,"398.15 K, x2 = 0.3",890.7 ± 2.7 m/s
same,speed of sound,"398.15 K, x2 = 0.5",872.1 ± 2.7 m/s
same,speed of sound,"398.15 K, x2 = 0.7",854.5 ± 2.7 m/s
same,speed of sound,"398.15 K, x2 = 0.8",838.5 ± 2.7 m/s
same,speed of sound,"398.15 K, x2 = 0.85",835 ± 2.7 m/s
same,speed of sound,"398.15 K, x2 = 0.9",829.1 ± 2.7 m/s
same,speed of sound,"403.15 K, x2 = 0",918.4 ± 2.8 m/s
same,speed of sound,"403.15 K, x2 = 0.1",895.5 ± 2.7 m/s
same,speed of sound,"403.15 K, x2 = 0.3",874.3 ± 2.7 m/s
same,speed of sound,"403.15 K, x2 = 0.5",855 ± 2.7 m/s
same,speed of sound,"403.15 K, x2 = 0.7",837.6 ± 2.7 m/s
same,speed of sound,"403.15 K, x2 = 0.8",821 ± 2.7 m/s
same,speed of sound,"403.15 K, x2 = 0.85",817.2 ± 2.6 m/s
same,speed of sound,"403.15 K, x2 = 0.9",810.9 ± 2.6 m/s
same,speed of sound,"408.15 K, x2 = 0",902.6 ± 2.8 m/s
same,speed of sound,"408.15 K, x2 = 0.1",879.3 ± 2.7 m/s
same,speed of sound,"408.15 K, x2 = 0.3",858 ± 2.7 m/s
same,speed of sound,"408.15 K, x2 = 0.5",838 ± 2.7 m/s
same,speed of sound,"408.15 K, x2 = 0.7",820.9 ± 2.6 m/s
same,speed of sound,"408.15 K, x2 = 0.8",803.6 ± 2.6 m/s
same,speed of sound,"408.15 K, x2 = 0.85",799.5 ± 2.6 m/s
same,speed of sound,"408.15 K, x2 = 0.9",792.7 ± 2.6 m/s
same,speed of sound,"413.15 K, x2 = 0",887 ± 2.7 m/s
same,speed of sound,"413.15 K, x2 = 0.1",863.3 ± 2.7 m/s
same,speed of sound,"413.15 K, x2 = 0.3",841.9 ± 2.7 m/s
same,speed of sound,"413.15 K, x2 = 0.5",821.1 ± 2.6 m/s
same,speed of sound,"413.15 K, x2 = 0.7",804.3 ± 2.6 m/s
same,speed of sound,"413.15 K, x2 = 0.8",786.3 ± 2.6 m/s
same,speed of sound,"413.15 K, x2 = 0.85",781.9 ± 2.6 m/s
same,speed of sound,"413.15 K, x2 = 0.9",774.6 ± 2.6 m/s
same,speed of sound,"418.15 K, x2 = 0",871.4 ± 2.7 m/s
same,speed of sound,"418.15 K, x2 = 0.1",847.4 ± 2.7 m/s
same,speed of sound,"418.15 K, x2 = 0.3",825.9 ± 2.7 m/s
same,speed of sound,"418.15 K, x2 = 0.5",804.3 ± 2.6 m/s
same,speed of sound,"418.15 K, x2 = 0.7",787.8 ± 2.6 m/s
same,speed of sound,"418.15 K, x2 = 0.8",769.2 ± 2.6 m/s
same,speed of sound,"418.15 K, x2 = 0.85",764.4 ± 2.6 m/s
same,speed of sound,"418.15 K, x2 = 0.9",756.6 ± 2.6 m/s
same,speed of sound,"423.15 K, x2 = 0",856 ± 2.7 m/s
same,speed of sound,"423.15 K, x2 = 0.1",831.5 ± 2.6 m/s
same,speed of sound,"423.15 K, x2 = 0.3",810 ± 2.6 m/s
same,speed of sound,"423.15 K, x2 = 0.5",787.5 ± 2.6 m/s
same,speed of sound,"423.15 K, x2 = 0.7",771.6 ± 2.6 m/s
same,speed of sound,"423.15 K, x2 = 0.8",752.2 ± 2.6 m/s
same,speed of sound,"423.15 K, x2 = 0.85",747 ± 2.6 m/s
same,speed of sound,"423.15 K, x2 = 0.9",738.6 ± 2.5 m/s
